The subject of one data set is Plasmopara viticola. Kind of data set: whole plant or invertebrate. It is filed as in vivo. Conditions: 24 h, read-out: PLASVI percent control.
The subject of a further data set is Phytophthora infestans. Kind of data set: whole plant or invertebrate. It is filed as in vivo. The conditions noted are these: 24 h, read-out: PHYTIN percent control.
The next data set relates to Septoria tritici. Kind of data set: Leaf Blotch of Wheat, 1-day protectant whole plant test. It is filed as in vivo. Conditions: Zymoseptoria tritici, 24 h, read-out: SEPTTR percent control.
[1] abbreviates: 100 ppm spray, wheat plants (variety Monon), one-day protectant test, vs untreated inoculated plants.

Like-named read-outs stand apart in the source and are kept apart here.

This passage reports pest or weed control and melting point results from patent US6815556B2, “Compounds having fungicidal activity and processes to make and use same” (Dow AgroSciences LLC, priority 2000, dated 2004).

By melting point is commonly meant the temperature of the solid-liquid transition.

For the compound `CC(C)OC(=O)N[C@H](CS(=O)(=O)C(C)c1ccc(C=O)cc1)C(C)C` (stereo partly shown) [Compound 15], the melting point was in the range of 50 to 60 °C. In addition, the pest or weed control at 100 ppm in the data set with Plasmopara viticola fell in the range of 90 to 100%. Moreover, the pest or weed control at 100 ppm in the data set on Phytophthora infestans fell in the range of 90 to 100%.
`CC(C)OC(=O)N[C@H](CS(=O)(=O)C(C)c1ccc(Br)nc1)C(C)C` (stereo partly shown) [Compound 8]: the results for the pest or weed control at 100 ppm with Plasmopara viticola, in the data set on Phytophthora infestans and in the data set on Septoria tritici (setting [1]) were 50 to 89%, 50 to 89% and below 20%, respectively.
For `CC(C)OC(=O)N[C@H](CS(=O)(=O)C(C)c1ccc(OC(F)(F)F)cc1)C(C)C` (stereo partly shown) [Compound 4], the melting point is 50 to 60 °C. Further, in the data set with Plasmopara viticola, the pest or weed control at 100 ppm was 90 to 100%. For the same compound, in the data set with Phytophthora infestans, the pest or weed control at 100 ppm was in the range of 90 to 100%. For the same compound, the pest or weed control at 100 ppm in the data set on Septoria tritici (setting [1]) was below 20%.
In the case of `CC(C)[C@@H](CS(=O)(=O)C(C)c1ccc(Br)cc1)NC(=O)OC(C)(C)C` (stereo partly shown) [Compound 20], the results for the pest or weed control at 100 ppm with Plasmopara viticola, in the data set on Phytophthora infestans and in the data set with Septoria tritici (setting [1]) were 50 to 89%, 90 to 100% and 20 to 49%, respectively.
With `CCC(c1ccc(Cl)cc1)S(=O)(=O)C[C@@H](NC(=O)OC(C)C)C(C)C` (stereo partly shown) [Compound 23], the pest or weed control at 100 ppm in the data set with Plasmopara viticola, in the data set with Phytophthora infestans and in the data set with Septoria tritici (setting [1]) was 50 to 89% each time.
For `CC(C)OC(=O)N[C@H](CS(=O)(=O)C(C)c1ccc([N+](=O)[O-])cc1)C(C)C` (stereo partly shown) [Compound 13], the pest or weed control at 100 ppm in the data set with Plasmopara viticola is 90 to 100%; with Phytophthora infestans, 90 to 100%; in the data set on Septoria tritici (setting [1]) it was below 20%.
`CC(c1ccc(C#N)cc1)S(=O)(=O)C[C@H](CC1CCCCC1)NC(=O)OC(C)(C)C` (stereo partly shown) [Compound 41]: the melting point lay within 58 to 65 °C. For the same compound, in the data set with Plasmopara viticola, the pest or weed control at 100 ppm was in the range of 90 to 100%. The pest or weed control at 100 ppm with Phytophthora infestans was 50 to 89%.
With `Cc1ccc(OC(=O)N[C@H](CS(=O)(=O)C(C)c2ccc(C#N)cc2)C(C)C)cc1` (stereo partly shown) [Compound 29], the melting point is 65 to 74 °C. Besides, in the data set with Plasmopara viticola, the pest or weed control at 100 ppm was in the range of 90 to 100%. In addition, in the data set with Phytophthora infestans, the pest or weed control at 100 ppm lay within 90 to 100%. For the same compound, the pest or weed control at 100 ppm with Septoria tritici was 50 to 89%.
On to `C#CCCOC(=O)N[C@H](CS(=O)(=O)C(C)c1ccc(Br)cc1)C(C)C` (stereo partly shown) [Compound 21], for which the pest or weed control at 100 ppm in the data set with Plasmopara viticola is 50 to 89%; in the data set on Phytophthora infestans it was 90 to 100%; in the data set on Septoria tritici (setting [1]) it was 50 to 89%.
As for `CC(C)[C@@H](CS(=O)(=O)C(C)c1ccc(C#N)cc1)NC(=O)Oc1ccc(F)cc1` (stereo partly shown) [Compound 18], the pest or weed control at 100 ppm with Plasmopara viticola was in the range of 90 to 100%; in the data set on Phytophthora infestans, 90 to 100%; in the data set with Septoria tritici, 50 to 89%.
As to `CC(C)OC(=O)N[C@H](CS(=O)(=O)C(C)c1ccc(Cl)c(Cl)c1)C(C)C` (stereo partly shown) [Compound 5], the melting point fell in the range of 75 to 85 °C. The pest or weed control at 100 ppm with Plasmopara viticola lay in the range of 50 to 89%. In addition, the pest or weed control at 100 ppm in the data set with Phytophthora infestans was 90 to 100%. For the same compound, the pest or weed control at 100 ppm in the data set on Septoria tritici (setting [1]) is below 20%.
As to `C#Cc1ccc(C(C)S(=O)(=O)C[C@@H](NC(=O)OC(C)C)C(C)C)cc1` (stereo partly shown) [Compound 11], the melting point lay within 125 to 135 °C. The pest or weed control at 100 ppm in the data set on Plasmopara viticola lay within 50 to 89%. Moreover, the pest or weed control at 100 ppm in the data set on Phytophthora infestans lay in the range of 90 to 100%. Further, the pest or weed control at 100 ppm in the data set on Septoria tritici (setting [1]) is 50 to 89%.
Turning to `COc1cccc(OC(=O)N[C@H](CS(=O)(=O)C(C)c2ccc(C#N)cc2)C(C)C)c1` (stereo partly shown) [Compound 43], the melting point was 50 to 53 °C. The pest or weed control at 100 ppm in the data set with Plasmopara viticola is 90 to 100%. The pest or weed control at 100 ppm in the data set with Phytophthora infestans was in the range of 50 to 89%.
`CC(C)[C@@H](CS(=O)(=O)C(C)c1ccc(Br)cc1)NC(=O)Oc1ccc2ccccc2c1` (stereo partly shown) [Compound 31] had a melting point of 129 to 135 °C. Besides, the pest or weed control at 100 ppm in the data set with Plasmopara viticola lay within 90 to 100%. Further, the pest or weed control at 100 ppm in the data set on Phytophthora infestans was 90 to 100%.
`CC[C@@H](CS(=O)(=O)C(C)c1ccc(C#N)cc1)NC(=O)Oc1ccc(C)cc1` (stereo partly shown) [Compound 38]: the melting point was 50 to 60 °C. The pest or weed control at 100 ppm with Plasmopara viticola fell in the range of 90 to 100%. Also, the pest or weed control at 100 ppm in the data set on Phytophthora infestans was 90 to 100%.
Compound `CC(C)OC(=O)N[C@H](CS(=O)(=O)C(C)c1ccc(C#N)cc1)C(C)C` (stereo partly shown) [Compound 2] displayed a melting point of 110 to 120 °C. The pest or weed control at 100 ppm in the data set on Plasmopara viticola was 90 to 100%. For the same compound, the pest or weed control at 100 ppm in the data set with Phytophthora infestans fell in the range of 90 to 100%. The pest or weed control at 100 ppm in the data set with Septoria tritici (setting [1]) is below 20%.
As for `CC(C)[C@@H](CS(=O)(=O)C(C)c1ccc(C#N)cc1)NC(=O)OCC(Cl)(Cl)Cl` (stereo partly shown) [Compound 27], the pest or weed control at 100 ppm in the data set on Plasmopara viticola lay within 90 to 100%; in the data set on Phytophthora infestans, 90 to 100%; in the data set with Septoria tritici (setting [1]), 50 to 89%.
With `CC(C)OC(=O)N[C@H](CS(=O)(=O)C(C)c1ccc(Br)cc1)C(C)C` (stereo partly shown) [Compound 1], the melting point lay in the range of 60 to 70 °C. Further, in the data set on Plasmopara viticola, the pest or weed control at 100 ppm was in the range of 90 to 100%. For the same compound, the pest or weed control at 100 ppm in the data set with Phytophthora infestans is 90 to 100%. Also, the pest or weed control at 100 ppm with Septoria tritici (setting [1]) was below 20%.
`CC(C)OC(=O)N[C@H](CS(=O)(=O)C(Cl)c1ccc(Cl)cc1)C(C)C` (stereo partly shown) [Compound 22, isopropyl 1-({[chloro(4-chlorophenyl)methyl]sulfonyl}methyl)-2-methylpropylcarbamate] registered a melting point of 140 to 143 °C. The pest or weed control at 100 ppm with Plasmopara viticola fell in the range of 90 to 100%. Also, in the data set with Phytophthora infestans, the pest or weed control at 100 ppm is 90 to 100%. Also, the pest or weed control at 100 ppm in the data set on Septoria tritici (setting [1]) is below 20%.
In turn, `CC[C@@H](CS(=O)(=O)C(C)c1ccc(C#N)cc1)NC(=O)Oc1ccc(F)cc1` (stereo partly shown) [Compound 42] had a melting point of 50 to 62 °C. The pest or weed control at 100 ppm with Plasmopara viticola is 90 to 100%. Further, the pest or weed control at 100 ppm in the data set on Phytophthora infestans was in the range of 90 to 100%.
As for `Cc1cccc(OC(=O)N[C@H](CS(=O)(=O)C(C)c2ccc(C#N)cc2)C(C)C)c1` (stereo partly shown) [Compound 19], the pest or weed control at 100 ppm in the data set with Plasmopara viticola and in the data set on Phytophthora infestans was 90 to 100% in each case.
Compound `COC(=O)c1ccc(C(C)S(=O)(=O)C[C@@H](NC(=O)OC(C)C)C(C)C)cc1` (stereo partly shown) [Compound 14] yielded a melting point of 140 to 145 °C. The pest or weed control at 100 ppm in the data set with Plasmopara viticola lay within 90 to 100%. For the same compound, the pest or weed control at 100 ppm in the data set with Phytophthora infestans lay in the range of 90 to 100%.
For `CC(C)[C@@H](CS(=O)(=O)C(C)c1ccc(Br)cc1)NC(=O)Oc1ccccc1` (stereo partly shown) [Compound 17], the melting point was in the range of 55 to 65 °C. Also, the pest or weed control at 100 ppm in the data set with Plasmopara viticola is 90 to 100%. Further, the pest or weed control at 100 ppm in the data set on Phytophthora infestans was 90 to 100%. For the same compound, the pest or weed control at 100 ppm in the data set on Septoria tritici is 20 to 49%.
